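Five concentrations, 48 hours, 96-well plates. GI50: concentration for 50% inhibition of growth. TGI denotes the concentration required for complete inhibition of growth.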
Columns and labels:
Experiment in all cases: inhibition of tumour cell growth, NCI panel, 48 h
[1] = test system: MDA-MB-468 breast
[2] = test system: 786-0 renal
[3] = test system: A498 renal
[4] = test system: A549 NSCLC
[5] = test system: ACHN renal
[6] = test system: BT-549 breast
[7] = test system: CAKI-1 renal
[8] = test system: COLO 205 colon
[9] = test system: DU-145 prostate
[10] = test system: EKVX NSCLC
[11] = test system: HCC-2998 colon
[12] = test system: HCT-116 colon
[13] = test system: HCT-15 colon
[14] = test system: HL-60(TB) leukemia
[15] = test system: HOP-62 NSCLC
[16] = test system: HOP-92 NSCLC
[17] = test system: HS 578T breast
[18] = test system: HT29 colon
[19] = test system: IGROV1 ovarian
[20] = test system: K-562 leukemia
[21] = test system: KM12 colon
[22] = test system: M14 melanoma
[23] = test system: MALME-3M melanoma
[24] = test system: MCF7 breast
[25] = test system: MDA-MB-231 breast
[26] = test system: MDA-MB-435
[27] = test system: MOLT-4 leukemia
[28] = test system: NCI-H226 lung
[29] = test system: NCI-H23 lung
[30] = test system: NCI-H460 lung
[31] = test system: NCI-H522 lung
[32] = test system: OVCAR-3 ovarian
[33] = test system: OVCAR-4 ovarian
[34] = test system: OVCAR-5 ovarian
[35] = test system: OVCAR-8 ovarian
[36] = test system: PC-3 prostate
[37] = test system: RXF 393 renal
[38] = test system: SF-268 CNS
[39] = test system: SF-295 CNS
[40] = test system: SF-539 CNS
[41] = test system: SK-MEL-2 melanoma
[42] = test system: SK-MEL-28 melanoma
[43] = test system: SK-MEL-5 melanoma
[44] = test system: SK-OV-3 ovarian
[45] = test system: SN12C renal
[46] = test system: SNB-19 CNS
[47] = test system: SR leukemia
[48] = test system: SW-620 colon
[49] = test system: T-47D breast
[50] = test system: TK-10 renal
[51] = test system: U251 CNS
[52] = test system: UACC-257 melanoma
[53] = test system: UACC-62 melanoma
[54] = test system: UO-31 renal

## CC(CO)Nc1cc(-c2[nH]c3cccnc3c2-c2ccc(F)cc2)ccn1 (configuration not stated)
[1]
  GI50: 6.74 µM
  TGI: > 25 µM

## COc1ccc2c(c1)C(=O)/C(=C/c1cccc(OCC(=O)c3ccccc3)c1)CC2
[1]
  GI50: 2.68 µM
  TGI: 74.2 µM

## CCCN1C(=O)NC(=O)C(CC)(N2C(=O)c3c(F)c(F)c(F)c(F)c3C2=O)C1=O (configuration not stated)
[1]
  GI50: 1.54 µM
  TGI: 3.93 µM

## CCOc1ccccc1CCN=C1NC(=O)/C(=C/c2ccc3ncccc3c2)S1
[1]
  GI50: 1.16 µM
  TGI: > 16.9 µM

## O=S(=O)(Nc1ccc(Br)cc1)c1ccc(-c2cnc(C3CC3)o2)cc1
[1]
  GI50: 1.13 µM
  TGI: 7.28 µM

## CC1=C([Se]CC(OC(=O)CC[Se]c2ccccc2)C(=O)NC(C)(C)C)C(=O)c2ccccc2C1=O (configuration not stated)
[1]
  GI50: 0.509 µM
  TGI: 2.06 µM

## CC1=C2C(=C[C@@](C)(CO)[C@@H]2OC(=O)N(C)CCN(C)C(=O)OC(C)(C)C)C(=O)[C@](C)(O)C12CC2
[1]
  GI50: 1.1 µM
  TGI: 3.8 µM

## O=C(O)c1nc(NCc2nc3cc(Cl)ccc3o2)n[nH]1
[1]
  GI50: > 100 µM
  TGI: > 100 µM

## O=C1/C(=C/c2ccc([N+](=O)[O-])cc2)CN(C(=O)CCN2CCC(=NO)CC2)C/C1=C\c1ccc([N+](=O)[O-])cc1
[1]
  GI50: 1.06 µM
  TGI: 3.61 µM

## COc1cc(/C=C/C(=O)/C=C/c2cc(OC)c3c(c2)OCO3)cc2c1OCO2
[1]
  GI50: 3.46 µM
  TGI: 28.3 µM

## CCN1C(=O)N(CC)C2C1NN=c1s/c(=C\c3ccc(Cl)cc3Cl)c(=O)n12 (configuration not stated)
[1]
  GI50: 0.0417 µM
  TGI: 19.4 µM

## CCc1c2c(nc3ccc(OCc4ccc(B(O)O)cc4)cc13)-c1cc3c(c(=O)n1C2)COC(=O)[C@]3(O)CC
[1]
  GI50: < 0.01 µM
  TGI: 0.0355 µM

## Cc1cc(=O)oc2cc(OCCOc3ccc(/C=C/C(=O)Nc4ccccc4N)cc3)ccc12
[2]
  GI50: 3.75 µM
  TGI: > 100 µM
[3]
  GI50: 2.74 µM
  TGI: 9.36 µM
[4]
  GI50: 4.27 µM
  TGI: > 100 µM
[5]
  GI50: 5.52 µM
  TGI: > 100 µM
[6]
  GI50: 1.2 µM
  TGI: 4.93 µM
[7]
  GI50: 4.58 µM
  TGI: > 100 µM
[8]
  GI50: 3.68 µM
  TGI: > 100 µM
[9]
  GI50: 6.8 µM
  TGI: > 100 µM
[10]
  GI50: 6.5 µM
  TGI: > 100 µM
[11]
  GI50: 5.47 µM
  TGI: > 100 µM
[12]
  GI50: 3.31 µM
  TGI: > 100 µM
[13]
  GI50: 3.17 µM
  TGI: > 100 µM
[14]
  GI50: 0.369 µM
  TGI: 2.62 µM
[15]
  GI50: 8.17 µM
  TGI: > 100 µM
[16]
  GI50: 3.45 µM
  TGI: > 100 µM
[17]
  GI50: > 100 µM
  TGI: > 100 µM
[18]
  GI50: 4.45 µM
  TGI: > 100 µM
[19]
  GI50: 2.08 µM
  TGI: > 100 µM
[20]
  GI50: 3.01 µM
  TGI: > 100 µM
[21]
  GI50: 5.12 µM
  TGI: > 100 µM
[22]
  GI50: 9.87 µM
  TGI: > 100 µM
[23]
  GI50: 3.89 µM
  TGI: > 100 µM
[24]
  GI50: 1.27 µM
  TGI: > 100 µM
[25]
  GI50: 2.55 µM
  TGI: 35.1 µM
[26]
  GI50: 6.69 µM
  TGI: > 100 µM
[1]
  GI50: 3.41 µM
  TGI: 96.2 µM
[27]
  GI50: 0.294 µM
  TGI: 1.34 µM
[28]
  GI50: 4.09 µM
  TGI: > 100 µM
[29]
  GI50: 6.05 µM
  TGI: > 100 µM
[30]
  GI50: 2.74 µM
  TGI: > 100 µM
[31]
  GI50: 4 µM
  TGI: > 100 µM
[32]
  GI50: 4.19 µM
  TGI: > 100 µM
[33]
  GI50: 4.86 µM
  TGI: > 100 µM
[34]
  GI50: 6.43 µM
  TGI: > 100 µM
[35]
  GI50: 3.99 µM
  TGI: > 100 µM
[36]
  GI50: 3.1 µM
  TGI: > 100 µM
[37]
  GI50: 3.64 µM
  TGI: > 100 µM
[38]
  GI50: 4.43 µM
  TGI: > 100 µM
[39]
  GI50: 4.8 µM
  TGI: > 100 µM
[40]
  GI50: 2.58 µM
  TGI: > 100 µM
[41]
  GI50: 5.81 µM
  TGI: > 100 µM
[42]
  GI50: 5.2 µM
  TGI: > 100 µM
[43]
  GI50: 1.48 µM
  TGI: 3.2 µM
[44]
  GI50: 8.39 µM
  TGI: > 100 µM
[45]
  GI50: 2.77 µM
  TGI: > 100 µM
[46]
  GI50: 4.42 µM
  TGI: > 100 µM
[47]
  GI50: 5.66 µM
  TGI: > 100 µM
[48]
  GI50: 4.16 µM
  TGI: > 100 µM
[49]
  GI50: 1.59 µM
  TGI: > 100 µM
[50]
  GI50: 9.25 µM
  TGI: > 100 µM
[51]
  GI50: 5.59 µM
  TGI: > 100 µM
[52]
  GI50: 2.87 µM
  TGI: > 100 µM
[53]
  GI50: 3.74 µM
  TGI: > 100 µM
[54]
  GI50: 1.31 µM
  TGI: > 100 µM

From PubChem BioAssay (NCI)
